Assay results published in patent publication US20230139171A1 (SITA Information Networking Computing UK Limited, priority 2019, published 2023).
pIC50: −log10 of the molar value.

Assays:
Assay type in all cases: cell-based
human TLR8 = target: T1, human TLR8 (Homo sapiens, UniProt Q9NR97); assay: TLR8 inhibition reporter assay (HEK-Blue cells, SEAP reporter, R848 stimulation); conditions: HEK-Blue cells overexpressing human TLR8, SEAP reporter, R848 15.9 μM; read-out: TLR8 IC50
T1 construct: host or cells: HEK-Blue cells
T1 sequence (Q9NR97 27-1041): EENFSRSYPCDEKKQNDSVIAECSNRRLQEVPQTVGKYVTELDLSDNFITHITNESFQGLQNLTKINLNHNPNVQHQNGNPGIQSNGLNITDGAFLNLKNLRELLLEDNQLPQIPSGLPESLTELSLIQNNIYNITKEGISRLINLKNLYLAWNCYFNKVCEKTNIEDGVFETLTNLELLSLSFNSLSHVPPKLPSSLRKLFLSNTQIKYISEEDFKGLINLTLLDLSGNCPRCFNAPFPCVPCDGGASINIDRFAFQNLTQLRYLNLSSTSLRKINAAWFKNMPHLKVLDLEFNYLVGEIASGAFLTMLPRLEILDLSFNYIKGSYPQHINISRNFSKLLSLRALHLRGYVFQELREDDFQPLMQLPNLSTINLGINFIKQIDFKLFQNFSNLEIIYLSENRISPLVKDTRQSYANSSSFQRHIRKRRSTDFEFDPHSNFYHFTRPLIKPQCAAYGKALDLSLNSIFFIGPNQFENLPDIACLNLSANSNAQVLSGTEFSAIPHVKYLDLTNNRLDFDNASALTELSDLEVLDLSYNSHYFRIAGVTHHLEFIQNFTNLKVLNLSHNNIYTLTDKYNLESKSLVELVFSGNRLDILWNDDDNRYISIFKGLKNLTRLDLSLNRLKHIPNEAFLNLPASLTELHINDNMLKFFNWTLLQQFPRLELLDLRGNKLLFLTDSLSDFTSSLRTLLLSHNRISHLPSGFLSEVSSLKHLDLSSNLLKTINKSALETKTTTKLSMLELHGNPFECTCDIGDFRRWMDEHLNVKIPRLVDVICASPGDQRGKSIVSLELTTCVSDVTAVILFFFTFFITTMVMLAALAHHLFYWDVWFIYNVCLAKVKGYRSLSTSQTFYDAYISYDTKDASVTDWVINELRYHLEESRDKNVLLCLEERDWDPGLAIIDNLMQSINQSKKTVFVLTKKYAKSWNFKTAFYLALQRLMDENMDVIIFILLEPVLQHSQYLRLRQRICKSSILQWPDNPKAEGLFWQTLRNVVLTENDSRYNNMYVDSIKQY
Summary of the method: (§1)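 Dose–response from 0.05 nM to 50 μM was run in HEK-Blue human TLR7, TLR8 and TLR9 reporter cells. After 30 min at room temperature with compound, ligand was added (TLR7 gardiquimod 7.5 μM; TLR8 R848 15.9 μM; TLR9 ODN2006 5 nM) and SEAP measured next day, at 22 h.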

human TLR7 = target: T2, human TLR7 (Homo sapiens, UniProt Q9NYK1); assay: TLR7 inhibition reporter assay (HEK-Blue cells, SEAP reporter, gardiquimod stimulation); conditions: HEK-Blue cells overexpressing human TLR7, SEAP reporter, gardiquimod 7.5 μM; read-out: TLR7 IC50
T2 construct: host or cells: HEK-Blue cells
T2 sequence (Q9NYK1 27-1049): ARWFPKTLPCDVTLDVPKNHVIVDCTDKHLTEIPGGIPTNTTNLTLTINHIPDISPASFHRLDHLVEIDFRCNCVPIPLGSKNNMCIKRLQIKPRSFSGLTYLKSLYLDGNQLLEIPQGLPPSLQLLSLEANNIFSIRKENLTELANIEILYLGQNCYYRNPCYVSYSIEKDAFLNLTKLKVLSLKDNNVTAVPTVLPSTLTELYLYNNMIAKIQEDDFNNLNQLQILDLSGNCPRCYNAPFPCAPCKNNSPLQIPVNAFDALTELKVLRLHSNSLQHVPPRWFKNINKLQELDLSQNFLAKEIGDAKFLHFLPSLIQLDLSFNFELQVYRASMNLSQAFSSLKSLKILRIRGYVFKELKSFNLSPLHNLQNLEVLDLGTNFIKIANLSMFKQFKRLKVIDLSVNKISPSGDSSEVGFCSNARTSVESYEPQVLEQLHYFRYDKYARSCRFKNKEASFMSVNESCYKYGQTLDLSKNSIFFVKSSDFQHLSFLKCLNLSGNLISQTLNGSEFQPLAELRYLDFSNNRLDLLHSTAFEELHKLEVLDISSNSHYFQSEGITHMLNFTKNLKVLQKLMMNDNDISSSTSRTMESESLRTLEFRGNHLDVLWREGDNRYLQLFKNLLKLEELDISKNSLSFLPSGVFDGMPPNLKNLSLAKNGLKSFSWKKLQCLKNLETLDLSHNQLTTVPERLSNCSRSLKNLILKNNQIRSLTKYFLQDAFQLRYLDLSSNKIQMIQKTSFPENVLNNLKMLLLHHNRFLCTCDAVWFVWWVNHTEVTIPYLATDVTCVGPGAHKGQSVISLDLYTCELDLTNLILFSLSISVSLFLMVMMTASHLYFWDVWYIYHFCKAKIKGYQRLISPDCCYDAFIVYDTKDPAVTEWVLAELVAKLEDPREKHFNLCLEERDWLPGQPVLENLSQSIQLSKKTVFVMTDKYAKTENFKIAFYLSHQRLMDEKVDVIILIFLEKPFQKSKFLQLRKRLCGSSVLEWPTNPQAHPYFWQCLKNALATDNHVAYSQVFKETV
Summary of the method: as §1

human TLR9 = target: T3, human TLR9 (Homo sapiens, UniProt Q9NR96); assay: TLR9 inhibition reporter assay (HEK-Blue cells, SEAP reporter, ODN2006 stimulation); conditions: HEK-Blue cells overexpressing human TLR9, SEAP reporter, ODN2006 5 nM
T3 construct: host or cells: HEK-Blue cells
T3 sequence (Q9NR96 26-1032): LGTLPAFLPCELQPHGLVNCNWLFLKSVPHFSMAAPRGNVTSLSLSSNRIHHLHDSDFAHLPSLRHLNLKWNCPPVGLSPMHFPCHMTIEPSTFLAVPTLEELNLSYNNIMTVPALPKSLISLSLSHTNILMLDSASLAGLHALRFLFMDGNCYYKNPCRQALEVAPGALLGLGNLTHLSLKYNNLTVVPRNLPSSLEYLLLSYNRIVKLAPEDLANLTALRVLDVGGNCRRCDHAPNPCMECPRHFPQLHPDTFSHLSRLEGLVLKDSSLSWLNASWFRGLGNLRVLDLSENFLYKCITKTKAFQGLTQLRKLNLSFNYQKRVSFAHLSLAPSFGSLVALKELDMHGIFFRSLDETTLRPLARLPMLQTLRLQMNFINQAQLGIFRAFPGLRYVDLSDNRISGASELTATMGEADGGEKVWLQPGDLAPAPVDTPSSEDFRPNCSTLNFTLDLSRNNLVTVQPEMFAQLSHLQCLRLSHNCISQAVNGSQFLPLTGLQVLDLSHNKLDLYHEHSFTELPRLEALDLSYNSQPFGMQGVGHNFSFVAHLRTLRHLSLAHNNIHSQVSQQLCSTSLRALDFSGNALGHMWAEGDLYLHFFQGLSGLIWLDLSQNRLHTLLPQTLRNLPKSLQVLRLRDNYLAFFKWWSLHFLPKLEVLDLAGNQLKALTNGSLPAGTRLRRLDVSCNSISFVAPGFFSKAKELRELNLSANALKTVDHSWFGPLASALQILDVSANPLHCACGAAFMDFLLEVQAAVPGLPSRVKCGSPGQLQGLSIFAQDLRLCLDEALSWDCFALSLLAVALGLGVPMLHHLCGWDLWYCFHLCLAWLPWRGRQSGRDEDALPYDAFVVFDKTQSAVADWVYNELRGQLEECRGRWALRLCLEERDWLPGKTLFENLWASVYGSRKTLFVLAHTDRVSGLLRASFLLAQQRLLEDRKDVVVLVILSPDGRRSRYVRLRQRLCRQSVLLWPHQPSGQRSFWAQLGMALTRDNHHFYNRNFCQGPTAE
Summary of the method: as §1

pIC50 (human TLR8)	pIC50 (human TLR7)	pIC50 (human TLR9)	Compound
8.45	8.14	4.82	Cc1cc2ncnn2cc1-c1[nH]c2sc(C3CCC(NC4(C)COC4)CC3)nc2c1C(C)C (single isomer, unassigned) [Example 144, N-(4-(6-isopropyl-5-(7-methyl-[1,2,4]triazolo[1,5-a]pyridin-6-yl)-4H-pyrrolo[3,2-d]thiazol-2-yl)cyclohexyl)-3-methyloxetan-3-amine]
7.38	7.22	< 4.30	Cc1cc2ncnn2cc1-c1[nH]c2sc(C3CCC(NC4(C)COC4)CC3)nc2c1C(C)C (single isomer, unassigned) [Example 145, N-(4-(6-isopropyl-5-(7-methyl-[1,2,4]triazolo[1,5-a]pyridin-6-yl)-4H-pyrrolo[3,2-d]thiazol-2-yl)cyclohexyl)-3-methyloxetan-3-amine]
9.04	7.71	4.79	Cc1cc2ncnn2cc1-c1[nH]c2sc(C3CCC(N4CCCOCC4)CC3)nc2c1C(C)C (single isomer, unassigned) [Example 146, 4-(4-(6-isopropyl-5-(7-methyl-[1,2,4]triazolo[1,5-a]pyridin-6-yl)-4H-pyrrolo[3,2-d]thiazol-2-yl)cyclohexyl)-1,4-oxazepane]
8.25	7.05	4.73	Cc1cc2ncnn2cc1-c1[nH]c2sc(C3CCC(N4CCCOCC4)CC3)nc2c1C(C)C (single isomer, unassigned) [Example 147, 4-(4-(6-isopropyl-5-(7-methyl-[1,2,4]triazolo[1,5-a]pyridin-6-yl)-4H-pyrrolo[3,2-d]thiazol-2-yl)cyclohexyl)-1,4-oxazepane]
8.00	7.93	< 4.30	Cc1cc2ncnn2cc1-c1[nH]c2sc(C3CCC(N4CCNC(=O)C4)CC3)nc2c1C(C)C (single isomer, unassigned) [Example 148, 4-(4-(6-isopropyl-5-(7-methyl-[1,2,4]triazolo[1,5-a]pyridin-6-yl)-4H-pyrrolo[3,2-d]thiazol-2-yl)cyclohexyl)piperazin-2-one]
7.01	6.97	< 4.30	Cc1cc2ncnn2cc1-c1[nH]c2sc(C3CCC(N4CCNC(=O)C4)CC3)nc2c1C(C)C (single isomer, unassigned) [Example 149, 4-(4-(6-isopropyl-5-(7-methyl-[1,2,4]triazolo[1,5-a]pyridin-6-yl)-4H-pyrrolo[3,2-d]thiazol-2-yl)cyclohexyl)piperazin-2-one]

Continued, compound first:

Compound	pIC50 (human TLR8)	pIC50 (human TLR7)	pIC50 (human TLR9)
Cc1cc(-c2[nH]c3sc(C4CCC(NC56CC(C5)C6)CC4)nc3c2C(C)C)cn2ncnc12 (single isomer, unassigned) [Example 139, N-(4-(6-isopropyl-5-(8-methyl-[1,2,4]triazolo[1,5-a]pyridin-6-yl)-4H-pyrrolo[3,2-d]thiazol-2-yl)cyclohexyl)bicyclo[1.1.1]pentan-1-amine]	7.58	8.30	4.76
Cc1cc(-c2[nH]c3sc(C4CCC(NCC(C)(C)O)CC4)nc3c2C(C)C)cn2ncnc12 (single isomer, unassigned) [Example 140, 1-((4-(6-isopropyl-5-(8-methyl-[1,2,4]triazolo[1,5-a]pyridin-6-yl)-4H-pyrrolo[3,2-d]thiazol-2-yl)cyclohexyl)amino)-2-methylpropan-2-ol]	9.05	9.23	4.98
Cc1cc(-c2[nH]c3sc(C4CCC(NCC(C)(C)O)CC4)nc3c2C(C)C)cn2ncnc12 (single isomer, unassigned) [Example 141, 1-((4-(6-isopropyl-5-(8-methyl-[1,2,4]triazolo[1,5-a]pyridin-6-yl)-4H-pyrrolo[3,2-d]thiazol-2-yl)cyclohexyl)amino)-2-methylpropan-2-ol]	7.87	8.52	4.89
Cc1cc(-c2[nH]c3sc(C4CCC(NCC5(CO)CC5)CC4)nc3c2C(C)C)cn2ncnc12 (single isomer, unassigned) [Example 142, (1-(((4-(6-isopropyl-5-(8-methyl-[1,2,4]triazolo[1,5-a]pyridin-6-yl)-4H-pyrrolo[3,2-d]thiazol-2-yl)cyclohexyl)amino)methyl)cyclopropyl)methanol]	8.57	8.68	5.16
Cc1cc(-c2[nH]c3sc(C4CCC(NCC5(CO)CC5)CC4)nc3c2C(C)C)cn2ncnc12 (single isomer, unassigned) [Example 143, (1-(((4-(6-isopropyl-5-(8-methyl-[1,2,4]triazolo[1,5-a]pyridin-6-yl)-4H-pyrrolo[3,2-d]thiazol-2-yl)cyclohexyl)amino)methyl)cyclopropyl)methanol]	7.71	8.27	5.03
